In brackets after ≈: the same amount, converted by molar mass.
Key:
Assay type in all cases: functional
A549 = experiment: Cytotoxic activity against human A549 cell line was measured after 72 hr using MTT assay; settings: A549, 72 h, read-out: ED50 (the source's name)
L132 = experiment: Cytotoxic activity against human L132 cell line was measured after 72 hr using MTT assay; settings: L132, 72 h, read-out: ED50 (the source's name)
CCRF-CEM = experiment: Cytotoxic activity against human CEM.CM3 cell line was measured after 72 hr using MTT assay; settings: Homo sapiens, CCRF-CEM, 72 h; read-out: ED50 (the source's name)
BRISTOL8 = experiment: Cytotoxic activity against human BRISTOL8 cell line was measured after 72 hr using MTT assay; settings: Homo sapiens, BRISTOL8, 72 h; read-out: ED50 (the source's name)
U-937 = experiment: Cytotoxic activity against human U937 cell line was measured after 72 hr using MTT assay; settings: Homo sapiens, U-937, 72 h; read-out: ED50 (the source's name)
Jurkat = experiment: Cytotoxic activity against human JurkatE6.1 cell line was measured after 72 h using MTT assay; settings: for EC50: Homo sapiens, Jurkat, 72 h, read-out: ED50 (the source's name)
PA-1 = experiment: Cytotoxic activity against human PA-1 cell line was measured after 72 hr using MTT assay; settings: Homo sapiens, PA-1, 72 h; read-out: ED50 (the source's name)
DU-145 = experiment: Cytotoxic activity against human DU145 cell line was measured after 72 hr using MTT assay; settings: for EC50: Homo sapiens, DU-145, 72 h, read-out: ED50 (the source's name)
MOLT-4 = experiment: Cytotoxic activity against human MOLT-4 cell line was measured after 72 hr using MTT assay; settings: Homo sapiens, MOLT-4, 72 h; read-out: ED50 (the source's name)

SMILES	EC50 (A549) [µg/mL]	EC50 (L132) [µg/mL]	EC50 (CCRF-CEM) [µg/mL]	EC50 (BRISTOL8) [µg/mL]	EC50 (U-937) [µg/mL]	EC50 (Jurkat) [µg/mL]	EC50 (PA-1) [µg/mL]	EC50 (DU-145) [µg/mL]	EC50 (MOLT-4) [µg/mL]	ED50 (Jurkat) [µg/mL]	ED50 (DU-145) [µg/mL]
C=C(C)[C@@H]1CC[C@]2(C(=O)O)CC[C@]3(C)[C@H](CC[C@@H]4[C@@]5(C)CC[C@H](O)C(C)(C)[C@@H]5CC[C@]43C)[C@@H]12 [BETULINIC ACID]	> 10	1.3 (≈ 2.85 µM)	0.98 (≈ 2.15 µM)	0.84 (≈ 1.84 µM)	0.69 (≈ 1.51 µM)	0.65 (≈ 1.42 µM)	> 10	1.13 (≈ 2.47 µM)	1.23 (≈ 2.69 µM)	–	–
COC(=O)COC(=O)[C@]12CC[C@@H](C(C)C)C1C1CCC3[C@@]4(C)CC[C@H](O)C(C)(C)C4CC[C@@]3(C)[C@]1(C)CC2 (stereo partly drawn)	> 10	> 10	2.5 (≈ 4.71 µM)	3.4 (≈ 6.41 µM)	> 10	5.5 (≈ 10.4 µM)	0.5 (≈ 0.942 µM)	> 10	2.8 (≈ 5.28 µM)	–	–
CC1(C)C(=O)C(Br)C[C@@]2(C)C1CC[C@]1(C)C2CCC2C3[C@H](C(C)(Br)CBr)CC[C@]3(C(=O)O)CC[C@]21C (stereo partly drawn)	> 10	> 10	2.8 (≈ 4.04 µM)	3.8 (≈ 5.48 µM)	2.1 (≈ 3.03 µM)	2.1 (≈ 3.03 µM)	5.1 (≈ 7.36 µM)	3.6 (≈ 5.19 µM)	5.9 (≈ 8.51 µM)	–	–
C=C(C)[C@@H]1CC[C@]2(C(=O)O)CC[C@]3(C)C(CCC4[C@@]5(C)CC[C@H](OC(=O)CC)C(C)(C)C5CC[C@]43C)C12 (stereo partly drawn)	> 10	> 10	5.5 (≈ 10.7 µM)	2.1 (≈ 4.1 µM)	6.8 (≈ 13.3 µM)	2.1 (≈ 4.1 µM)	3.7 (≈ 7.22 µM)	4.2 (≈ 8.19 µM)	3.3 (≈ 6.44 µM)	–	–
C=C(C)[C@@H]1CC[C@]2(C(=O)O)CC[C@]3(C)C(CCC4[C@@]5(C)CC[C@H](OC(=O)C(C)(C)C)C(C)(C)C5CC[C@]43C)C12 (stereo partly drawn)	> 10	> 10	> 10	> 10	> 10	> 10	0.7 (≈ 1.29 µM)	1 (≈ 1.85 µM)	2.4 (≈ 4.44 µM)	–	–
CC(=O)O[C@H]1CC[C@@]2(C)C(CC[C@]3(C)C2CCC2C4[C@H](C(C)C)CC[C@]4(C(=O)O)CC[C@]23C)C1(C)C (stereo partly drawn)	2.3 (≈ 4.59 µM)	2.9 (≈ 5.79 µM)	1 (≈ 2 µM)	3.4 (≈ 6.79 µM)	1.8 (≈ 3.59 µM)	1.6 (≈ 3.2 µM)	0.8 (≈ 1.6 µM)	0.9 (≈ 1.8 µM)	1.1 (≈ 2.2 µM)	–	–
CC(C)[C@@H]1CC[C@]2(C(=O)O)CC[C@]3(C)C(CCC4[C@@]5(C)CC/C(=N\Nc6ccccc6)C(C)(C)C5CC[C@]43C)C12 (stereo partly drawn)	> 10	7.4 (≈ 13.5 µM)	2.9 (≈ 5.3 µM)	3.7 (≈ 6.77 µM)	2.2 (≈ 4.02 µM)	6.3 (≈ 11.5 µM)	0.4 (≈ 0.731 µM)	0.6 (≈ 1.1 µM)	1.4 (≈ 2.56 µM)	–	–
C=C(C)[C@@H]1CC[C@]2(C(=O)O)CC[C@]3(C)[C@H](CC[C@@H]4[C@@]5(C)CCC(=O)C(C)(C)[C@@H]5CC[C@]43C)[C@@H]12 [BETUNOLIC ACID]	> 10	> 10	4.4 (≈ 9.68 µM)	2.6 (≈ 5.72 µM)	2.8 (≈ 6.16 µM)	0.4 (≈ 0.88 µM)	1.2 (≈ 2.64 µM)	3.1 (≈ 6.82 µM)	1.2 (≈ 2.64 µM)	–	–
COC(=O)COC(=O)[C@]12CC[C@@H](C(C)(Br)CBr)C1C1CCC3[C@@]4(C)CC(Br)C(=O)C(C)(C)C4CC[C@@]3(C)[C@]1(C)CC2 (stereo partly drawn)	> 10	> 10	1.2 (≈ 1.57 µM)	1.9 (≈ 2.48 µM)	0.7 (≈ 0.914 µM)	1.1 (≈ 1.44 µM)	2.5 (≈ 3.27 µM)	4.5 (≈ 5.88 µM)	1.3 (≈ 1.7 µM)	–	–
CC(C)[C@@H]1CC[C@]2(C(=O)O)CC[C@]3(C)C(CCC4[C@@]5(C)CC[C@H](O)C(C)(C)C5CC[C@]43C)C12 (stereo partly drawn) [DIHYDROBETULINIC ACID]	2.2 (≈ 4.8 µM)	2.4 (≈ 5.23 µM)	1.3 (≈ 2.83 µM)	4.4 (≈ 9.59 µM)	0.9 (≈ 1.96 µM)	4.9 (≈ 10.7 µM)	0.7 (≈ 1.53 µM)	0.7 (≈ 1.53 µM)	0.6 (≈ 1.31 µM)	–	–
C=C(C)[C@@H]1CC[C@]2(C(=O)OCC(=O)OC)CC[C@]3(C)C(CCC4[C@@]5(C)CC[C@H](O)C(C)(C)C5CC[C@]43C)C12 (stereo in doubt; 3)	> 10	> 10	3.2 (≈ 6.05 µM)	5.3 (≈ 10 µM)	> 10	–	5.9 (≈ 11.2 µM)	–	4 (≈ 7.56 µM)	1.4 (≈ 2.65 µM)	>10
C=C(C)[C@@H]1CC[C@]2(C(=O)OCC(=O)OC)CC[C@]3(C)C(CCC4[C@@]5(C)CCC(=N)C(C)(C)C5CC[C@]43C)C12 (stereo partly drawn)	> 10	> 10	1.4 (≈ 2.66 µM)	1.4 (≈ 2.66 µM)	1.7 (≈ 3.23 µM)	0.5 (≈ 0.951 µM)	6.5 (≈ 12.4 µM)	5.5 (≈ 10.5 µM)	1.7 (≈ 3.23 µM)	–	–

From ChEMBL document CHEMBL1138817, “Synthesis and cytotoxic activity of 3-O-acyl/3-hydrazine /2-bromo/20,29-dibromo betulinic acid derivatives” (2004)
